Results on 14 molecules are retold here after patent US10160755B2 (Plexxikon Inc., priority 2015, dated 2018).

The target in the test is T1, FLT3-ITD (Homo sapiens, UniProt P36888).
T1 construct: FLT3-ITD; Invitrogen #PV6190
T1 sequence (P36888 1-993): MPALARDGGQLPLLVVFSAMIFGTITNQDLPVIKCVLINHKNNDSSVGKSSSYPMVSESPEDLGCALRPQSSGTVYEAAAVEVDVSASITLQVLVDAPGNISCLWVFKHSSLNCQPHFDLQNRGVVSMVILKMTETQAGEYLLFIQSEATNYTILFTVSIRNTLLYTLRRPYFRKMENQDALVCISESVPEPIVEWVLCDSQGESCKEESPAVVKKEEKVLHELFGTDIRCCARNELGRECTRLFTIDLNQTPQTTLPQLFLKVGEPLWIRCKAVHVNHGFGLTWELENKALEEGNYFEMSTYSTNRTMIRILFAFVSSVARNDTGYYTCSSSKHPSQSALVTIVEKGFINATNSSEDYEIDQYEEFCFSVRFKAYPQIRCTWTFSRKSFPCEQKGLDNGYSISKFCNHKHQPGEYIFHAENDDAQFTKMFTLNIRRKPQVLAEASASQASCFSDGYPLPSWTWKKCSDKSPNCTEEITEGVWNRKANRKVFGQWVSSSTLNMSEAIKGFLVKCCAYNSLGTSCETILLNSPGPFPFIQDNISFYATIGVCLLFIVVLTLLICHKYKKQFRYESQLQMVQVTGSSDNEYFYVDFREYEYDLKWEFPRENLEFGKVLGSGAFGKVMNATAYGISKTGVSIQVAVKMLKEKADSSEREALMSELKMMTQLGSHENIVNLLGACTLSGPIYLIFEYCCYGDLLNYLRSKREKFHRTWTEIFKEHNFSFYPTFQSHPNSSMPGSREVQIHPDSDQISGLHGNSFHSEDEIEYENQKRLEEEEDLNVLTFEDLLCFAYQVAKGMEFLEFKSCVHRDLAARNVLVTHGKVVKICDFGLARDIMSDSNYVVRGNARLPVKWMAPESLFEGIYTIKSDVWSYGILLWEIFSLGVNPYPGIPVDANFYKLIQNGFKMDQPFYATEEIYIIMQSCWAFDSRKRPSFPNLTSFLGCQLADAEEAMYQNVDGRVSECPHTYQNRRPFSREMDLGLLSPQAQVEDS
Kind of test: FLT3-ITD biochemical kinase assay (AlphaScreen). An excerpt: In order to determine the effect of compounds on FLT3 catalytic activity, kinase assays using recombinant enzymes and AlphaScreen® technology have been established. When the kinases are catalytically active, they phosphorylate a biotinylated peptide substrate on tyrosine residues. Using AlphaScreen® technology, the ability of the compounds to affect the catalytic activity of the kinases can be measured quantitatively. The peptide substrate is immobilized by the AlphaScreen® Streptavidin Donor beads and, upon phosphorylation by a tyrosine kinase, can bind to AlphaScreen® Anti-Phosphotyrosine (PY20) Acceptor beads. Upon excitation of these beads with laser light at 680 nm, singlet oxygen is produced. This singlet oxygen is rapidly quenched, unless the AlphaScreen® Anti-Phosphotyrosine (PY20) Acceptor beads are in close proximity, in which case a proximity signal can be measured at 580 nm. In the presence of catalytic activity, there is a very strong proximity signal. Selective kinase inhibitors affect a decrease in this proximity signal through a decrease in tyrosine phosphorylation of the peptide substrate.
Substrate • Poly (Glu4-Tyr) Peptide, biotin conjugate [Biotin-GG(EEEEY)10EE (SEQ ID NO: 4)] • UBI/Millipore #12-440 • Final concentration=30 nM
Adenosine Triphosphate (ATP) • Sigma #A-3377 • Final concentration for IC50 determination=10 μM (FLT3-D835Y) or 100 μM (FLT3 or FLT3-ITD) • Detection Reagent • AlphaScreen® Phosphotyrosine (PY20) Assay Kit • Perkin-Elmer #6760601M • Final concentration=10 μg/mL
Centrifuge 1 minute, shake to mix, and incubate as follows:
• Mix Streptavidin Donor beads at 6× final concentration in Stop/Detection buffer. • Add 5 μL Streptavidin Donor beads to the reaction plate. Centrifuge 1 minute, shake to mix, and incubate at room temperature for 20 minutes. • Mix Anti-Phosphotyrosine (PY20) Acceptor beads at 6× final concentration in Stop/Detection buffer. • Add 5 μL Anti-Phosphotyrosine (PY20) beads to the reaction plate. • Centrifuge 1 minute, shake to mix, and incubate at room temperature for 60 minutes. • Read plate on Wallac EnVision™ 2103 Multilabel Reader. In Vivo Model System Testing
Background: Alpha assays give light when donor and acceptor beads are brought close together.
`CC(C)(C)n1cnc2ccc(-c3c[nH]c4ncc(-c5cccc(OCC6CC6)c5)cc34)cc21` [P-373, 1-tert-butyl-6-[5-[3-(cyclopropylmethoxy)phenyl]-1H-pyrrolo[2,3-b]pyridin-3-yl]benzimidazole] had a half-inhibitory concentration (IC50) of 0.0001 to 1 µM.
The same measure for `CC(C)(C)n1cnc2ccc(-c3c[nH]c4ncc(-c5cnc(N6CCC6)nc5)cc34)cc21` [P-398, 5-[2-(azetidin-1-yl)pyrimidin-5-yl]-3-(3-tert-butylbenzimidazol-5-yl)-1H-pyrrolo[2,3-b]pyridine]: 0.0001 to 1 µM; for `COCCOc1cncc(-c2cnc3[nH]cc(-c4ccc5ncn(C(C)(C)C)c5c4)c3c2)c1` [P-368, 1-tert-butyl-6-[5-[5-(2-methoxyethoxy)-3-pyridyl]-1H-pyrrolo[2,3-b]pyridin-3-yl]benzimidazole]: 0.0001 to 1 µM; for `Cc1ncc(-c2cnc3[nH]cc(-c4ccc5ncn(C(C)(C)C)c5c4)c3c2)cc1F` [P-392, 1-tert-butyl-6-[5-(5-fluoro-6-methyl-3-pyridyl)-1H-pyrrolo[2,3-b]pyridin-3-yl]benzimidazole]: 0.0001 to 1 µM.
The same measure for `Cc1cc(-c2cnc3[nH]cc(-c4ccc5ncn(C(C)(C)C)c5c4)c3c2)cnc1F` [P-394, 1-tert-butyl-6-[5-(6-fluoro-5-methyl-3-pyridyl)-1H-pyrrolo[2,3-b]pyridin-3-yl]benzimidazole]: 0.0001 to 1 µM.
The same measure for `CC(C)(C)n1cnc2ccc(-c3c[nH]c4ncc(-c5cnc(C#N)nc5)cc34)cc21` [P-396, 5-[3-(3-tert-butylbenzimidazol-5-yl)-1H-pyrrolo[2,3-b]pyridin-5-yl]pyrimidine-2-carbonitrile]: 0.0001 to 1 µM; for `Cc1ncc(-c2cnc3[nH]cc(-c4ccc5ncn(C(C)(C)C)c5c4)c3c2)cc1C#N` [P-391, 5-[3-(3-tert-butylbenzimidazol-5-yl)-1H-pyrrolo[2,3-b]pyridin-5-yl]-2-methyl-pyridine-3-carbonitrile]: 0.0001 to 1 µM.
In turn, `Cc1ncc(-c2cnc3[nH]cc(-c4ccc5ncn(C(C)(C)C)c5c4)c3c2)cn1` [P-395, 1-tert-butyl-6-[5-(2-methylpyrimidin-5-yl)-1H-pyrrolo[2,3-b]pyridin-3-yl]benzimidazole] had an IC50 of 0.0001 to 1 µM.
Molecule `CC(C)(C)n1cnc2ccc(-c3c[nH]c4ncc(-c5cccc(OCC#N)c5)cc34)cc21` [P-367, 2-[3-[3-(3-tert-butylbenzimidazol-5-yl)-1H-pyrrolo[2,3-b]pyridin-5-yl]phenoxy]acetonitrile] gave an IC50 of 0.0001 to 1 µM.
The same measure for `COc1ccc(-c2cnc3[nH]cc(-c4ccc5ncn(C(C)(C)C)c5c4)c3c2)cc1NS(C)(=O)=O` [P-370, N-[5-[3-(3-tert-butylbenzimidazol-5-yl)-1H-pyrrolo[2,3-b]pyridin-5-yl]-2-methoxy-phenyl]methanesulfonamide]: 0.0001 to 1 µM.
`CC(C)(C)n1cnc2ccc(-c3c[nH]c4ncc(-c5cncc(NS(C)(=O)=O)c5)cc34)cc21` [P-371, N-[5-[3-(3-tert-butylbenzimidazol-5-yl)-1H-pyrrolo[2,3-b]pyridin-5-yl]-3-pyridyl]methanesulfonamide] gave a concentration for half-maximal inhibition (IC50) of 0.0001 to 1 µM.
The same measure for `CN(C)c1ncc(-c2cnc3[nH]cc(-c4ccc5ncn(C(C)(C)C)c5c4)c3c2)cn1` [P-401, 5-[3-(3-tert-butylbenzimidazol-5-yl)-1H-pyrrolo[2,3-b]pyridin-5-yl]-N,N-dimethyl-pyrimidin-2-amine]: 0.0001 to 1 µM; for `CC(C)(C)n1cnc2ccc(-c3c[nH]c4ncc(-c5cnc(NC6CC6)nc5)cc34)cc21` [P-400, 5-[3-(3-tert-butylbenzimidazol-5-yl)-1H-pyrrolo[2,3-b]pyridin-5-yl]-N-cyclopropyl-pyrimidin-2-amine]: 0.0001 to 1 µM.
`COc1cc(-c2cnc3[nH]cc(-c4ccc5ncn(C(C)(C)C)c5c4)c3c2)ccc1C#N` [P-372, 4-[3-(3-tert-butylbenzimidazol-5-yl)-1H-pyrrolo[2,3-b]pyridin-5-yl]-2-methoxy-benzonitrile] had an IC50 of 0.0001 to 1 µM.

In general, IC50 refers to the concentration at which inhibition is half-maximal. Read a high IC50 as lower potency.
